From ChEMBL document CHEMBL1201862, “PubChem BioAssay data set” (2004)
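Step 1: Grow cells in 96-well plates. Step 2: Expose to compound for 48 hours at 5 concentrations. Step 3: Interpolate endpoints linearly; if unreached, use highest concentration. GI50 marks 50% less growth.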 Active and inactive are the calls of the source. Rule as the data show it: active = GI50 up to about 1.1 µM and inactive = higher.

Experiments:
Assay in all cases: NCI anticancer screen, dose series, 48 h
Hs-578T = tested on: Hs-578T
SNB-75 = tested on: SNB-75
SW-620 = tested on: SW-620
TK-10 = tested on: TK-10
MDA-MB-435 = tested on: MDA-MB-435
OVCAR-3 = tested on: OVCAR-3
DU-145 = tested on: DU-145
HCT-15 = tested on: HCT-15
HCC 2998 = tested on: HCC 2998
SF-268 = tested on: SF-268
RPMI-8226 = tested on: RPMI-8226
HCT-116 = tested on: HCT-116
NCI-H460 = tested on: NCI-H460
A498 = tested on: A498
NCI-H522 = tested on: NCI-H522
A549 = tested on: A549
SF-295 = tested on: SF-295
SF-539 = tested on: SF-539
SNB-19 = tested on: SNB-19
SK-MEL-28 = tested on: SK-MEL-28
UACC-62 = tested on: UACC-62
T47D = tested on: T47D
BT-549 = tested on: BT-549
PC-3 = tested on: PC-3
HOP-62 = tested on: HOP-62
HOP-92 = tested on: HOP-92
SK-OV-3 = tested on: SK-OV-3
OVCAR-5 = tested on: OVCAR-5
OVCAR-4 = tested on: OVCAR-4
HL-60 = tested on: HL-60
SK-MEL-5 = tested on: SK-MEL-5
SK-MEL-2 = tested on: SK-MEL-2
IGROV-1 = tested on: IGROV-1
U-251 = tested on: U-251
Malme-3M = tested on: Malme-3M
786-0 = tested on: 786-0
CAKI-1 = tested on: CAKI-1
M14 = tested on: M14
COLO 205 = tested on: COLO 205
MOLT-4 = tested on: MOLT-4
UACC-257 = tested on: UACC-257
CCRF-CEM = tested on: CCRF-CEM
NCI-H226 = tested on: NCI-H226
NCI-H23 = tested on: NCI-H23
KM12 = tested on: KM12
SN12C = tested on: SN12C
HT-29 = tested on: HT-29
NCI/ADR-RES = tested on: NCI/ADR-RES
OVCAR-8 = tested on: OVCAR-8
ACHN = tested on: ACHN
EKVX = tested on: EKVX
MCF7 = tested on: MCF7
MDA-N = tested on: MDA-N
MDA-MB-231 = tested on: MDA-MB-231
UO-31 = tested on: UO-31
RXF 393 = tested on: RXF 393
K562 = tested on: K562

In the case of `CC(=O)N1c2ccccc2C(C)(C)OC1C(Cl)(Cl)Cl` (stereo not drawn), the GI50 (Hs-578T) is reported as 22.6 µM (inactive), the GI50 (SNB-75) is reported as 17.1 µM (inactive) and the GI50 (SW-620) is reported as 34 µM (inactive). For the same compound, the GI50 (TK-10) was 35.9 µM (inactive), the GI50 (MDA-MB-435) was 25.5 µM (inactive) and the GI50 (OVCAR-3) was 33.1 µM (inactive). For the same compound, the GI50 (DU-145) was 42.1 µM (inactive), the GI50 (HCT-15) was 32.2 µM and the GI50 (HCC 2998) was 23.2 µM (inactive). For the same compound, the GI50 (SF-268) was 37.3 µM (inactive), the GI50 (RPMI-8226) was 14.1 µM (inactive) and the GI50 (HCT-116) was 28.8 µM (inactive). For the same compound, the GI50 (NCI-H460) was 33.3 µM (inactive), the GI50 (A498) was 37 µM (inactive) and the GI50 (NCI-H522) was 23.3 µM (inactive). The GI50 (A549) was 27.7 µM (inactive), the GI50 (SF-295) was 37.6 µM (inactive) and the GI50 (SF-539) was 44.5 µM (inactive). The GI50 (SNB-19) was 44.7 µM (inactive), the GI50 (SK-MEL-28) was 47.6 µM (inactive) and the GI50 (UACC-62) was 37 µM (inactive). The GI50 (T47D) was 84.7 µM (inactive), the GI50 (BT-549) was 35.8 µM (inactive) and the GI50 (PC-3) was 31.8 µM (inactive). For the same compound, the GI50 (HOP-62) was 55.8 µM (inactive), the GI50 (HOP-92) was 21 µM (inactive) and the GI50 (SK-OV-3) was 37.8 µM (inactive). For the same compound, the GI50 (OVCAR-5) was 44.8 µM (inactive), the GI50 (OVCAR-4) was 42.5 µM (inactive) and the GI50 (HL-60) was 16.8 µM (inactive). For the same compound, the GI50 (SK-MEL-5) was 23.8 µM (inactive), the GI50 (SK-MEL-2) was 45.1 µM (inactive) and the GI50 (IGROV-1) was 41.8 µM (inactive). The GI50 (U-251) was 33.3 µM (inactive), the GI50 (Malme-3M) was 35.9 µM (inactive) and the GI50 (786-0) was 39 µM (inactive). For the same compound, the GI50 (CAKI-1) was 46.6 µM (inactive), the GI50 (M14) was 34 µM (inactive) and the GI50 (COLO 205) was 30.3 µM (inactive). The GI50 (MOLT-4) was 14.4 µM (inactive), the GI50 (UACC-257) was 26.5 µM (inactive) and the GI50 (CCRF-CEM) was 27.7 µM (inactive). The GI50 (NCI-H226) was 87.7 µM (inactive), the GI50 (NCI-H23) was 34.1 µM (inactive) and the GI50 (KM12) was 30.1 µM (inactive). For the same compound, the GI50 (SN12C) was 29.9 µM (inactive), the GI50 (HT-29) was 24.2 µM (inactive) and the GI50 (NCI/ADR-RES) was 31.7 µM (inactive). For the same compound, the GI50 (OVCAR-8) was 39.5 µM (inactive), the GI50 (ACHN) was 41.1 µM (inactive) and the GI50 (EKVX) was 26.2 µM (inactive). The GI50 (MCF7) was 23.6 µM (inactive), the GI50 (MDA-N) was 26.1 µM (inactive) and the GI50 (MDA-MB-231) was 39.6 µM (inactive). For the same compound, the GI50 (UO-31) was 58.2 µM (inactive).

In the case of `C=CC(Cl)(CBr)CCC(Br)C(C)(C)Cl` (stereo not drawn), the GI50 (Hs-578T) is reported as 35.4 µM (inactive), the GI50 (RXF 393) is reported as 17.4 µM (inactive) and the GI50 (SNB-75) is reported as 19.2 µM (inactive). The GI50 (SW-620) was 12.6 µM (inactive), the GI50 (TK-10) was 23.2 µM (inactive) and the GI50 (MDA-MB-435) was 14.2 µM (inactive). For the same compound, the GI50 (OVCAR-3) was 17.5 µM (inactive), the GI50 (DU-145) was 19.7 µM (inactive) and the GI50 (HCT-15) was 18.3 µM. The GI50 (HCC 2998) was 14.8 µM (inactive), the GI50 (SF-268) was 20.8 µM (inactive) and the GI50 (RPMI-8226) was 7.38 µM (inactive). The GI50 (HCT-116) was 12.8 µM (inactive), the GI50 (K562) was 14.9 µM (inactive) and the GI50 (NCI-H460) was 14.8 µM (inactive). For the same compound, the GI50 (A498) was 14.1 µM (inactive), the GI50 (NCI-H522) was 10.6 µM (inactive) and the GI50 (A549) was 31.3 µM (inactive). For the same compound, the GI50 (SF-295) was 14.8 µM (inactive), the GI50 (SF-539) was 16.9 µM (inactive) and the GI50 (SNB-19) was 16.7 µM (inactive). The GI50 (SK-MEL-28) was 17.3 µM (inactive), the GI50 (UACC-62) was 12.7 µM (inactive) and the GI50 (T47D) was 16.6 µM (inactive). For the same compound, the GI50 (BT-549) was 21.4 µM (inactive), the GI50 (PC-3) was 17.5 µM (inactive) and the GI50 (HOP-62) was 16.3 µM (inactive). The GI50 (HOP-92) was 19.5 µM (inactive), the GI50 (SK-OV-3) was 41.9 µM (inactive) and the GI50 (OVCAR-5) was 17.3 µM (inactive). The GI50 (OVCAR-4) was 16.6 µM (inactive), the GI50 (HL-60) was 4.05 µM (inactive) and the GI50 (SK-MEL-5) was 13.1 µM (inactive). For the same compound, the GI50 (SK-MEL-2) was 19.2 µM (inactive), the GI50 (IGROV-1) was 13 µM (inactive) and the GI50 (U-251) was 14.4 µM (inactive). For the same compound, the GI50 (Malme-3M) was 18.7 µM (inactive), the GI50 (786-0) was 11.7 µM (inactive) and the GI50 (M14) was 13.6 µM (inactive). The GI50 (COLO 205) was 15.9 µM (inactive), the GI50 (MOLT-4) was 3.23 µM (inactive) and the GI50 (UACC-257) was 14.3 µM (inactive). The GI50 (CCRF-CEM) was 1.89 µM (inactive), the GI50 (NCI-H226) was > 100 µM (inactive) and the GI50 (NCI-H23) was 17 µM (inactive). For the same compound, the GI50 (SN12C) was 21.3 µM (inactive), the GI50 (HT-29) was 15.3 µM (inactive) and the GI50 (NCI/ADR-RES) was 22.1 µM (inactive). The GI50 (OVCAR-8) was 15.6 µM (inactive), the GI50 (ACHN) was 16.5 µM (inactive) and the GI50 (EKVX) was 19.8 µM (inactive). For the same compound, the GI50 (MCF7) was 6.92 µM (inactive), the GI50 (MDA-N) was 17.7 µM (inactive) and the GI50 (MDA-MB-231) was 14.5 µM (inactive). For the same compound, the GI50 (UO-31) was 15.4 µM (inactive).

For `O=C(O)c1c(Cl)c(Cl)c(Cl)c(Cl)c1C(=O)Nc1ccc2cn[nH]c2c1`, the GI50 (Hs-578T) was 39.7 µM (inactive), the GI50 (RXF 393) was > 100 µM (inactive) and the GI50 (SNB-75) was 74.8 µM (inactive). For the same compound, the GI50 (SW-620) was > 100 µM (inactive), the GI50 (TK-10) was > 100 µM (inactive) and the GI50 (MDA-MB-435) was > 100 µM (inactive). The GI50 (OVCAR-3) was 65.2 µM (inactive), the GI50 (DU-145) was 48 µM (inactive) and the GI50 (HCT-15) was greater than 100 µM. The GI50 (SF-268) was > 100 µM (inactive), the GI50 (RPMI-8226) was 37.4 µM (inactive) and the GI50 (HCT-116) was > 100 µM (inactive). The GI50 (K562) was 97.3 µM (inactive), the GI50 (NCI-H460) was > 100 µM (inactive) and the GI50 (A498) was > 100 µM (inactive). For the same compound, the GI50 (NCI-H522) was > 100 µM (inactive), the GI50 (A549) was > 100 µM (inactive) and the GI50 (SF-295) was > 100 µM (inactive). The GI50 (SF-539) was > 100 µM (inactive), the GI50 (SNB-19) was > 100 µM (inactive) and the GI50 (SK-MEL-28) was > 100 µM (inactive). For the same compound, the GI50 (UACC-62) was > 100 µM (inactive), the GI50 (T47D) was 74.3 µM (inactive) and the GI50 (BT-549) was > 100 µM (inactive). For the same compound, the GI50 (PC-3) was > 100 µM (inactive), the GI50 (HOP-62) was 59.6 µM (inactive) and the GI50 (HOP-92) was > 100 µM (inactive). The GI50 (SK-OV-3) was > 100 µM (inactive), the GI50 (OVCAR-5) was > 100 µM (inactive) and the GI50 (OVCAR-4) was > 100 µM (inactive). For the same compound, the GI50 (SK-MEL-5) was > 100 µM (inactive), the GI50 (SK-MEL-2) was > 100 µM (inactive) and the GI50 (IGROV-1) was > 100 µM (inactive). For the same compound, the GI50 (U-251) was > 100 µM (inactive), the GI50 (Malme-3M) was > 100 µM (inactive) and the GI50 (786-0) was > 100 µM (inactive). For the same compound, the GI50 (CAKI-1) was > 100 µM (inactive), the GI50 (M14) was > 100 µM (inactive) and the GI50 (COLO 205) was > 100 µM (inactive). For the same compound, the GI50 (UACC-257) was > 100 µM (inactive), the GI50 (NCI-H226) was > 100 µM (inactive) and the GI50 (NCI-H23) was > 100 µM (inactive). For the same compound, the GI50 (KM12) was 62.1 µM (inactive), the GI50 (SN12C) was > 100 µM (inactive) and the GI50 (HT-29) was > 100 µM (inactive). For the same compound, the GI50 (NCI/ADR-RES) was > 100 µM (inactive), the GI50 (OVCAR-8) was > 100 µM (inactive) and the GI50 (ACHN) was > 100 µM (inactive). For the same compound, the GI50 (EKVX) was > 100 µM (inactive), the GI50 (MCF7) was 92.7 µM (inactive) and the GI50 (MDA-N) was > 100 µM (inactive). For the same compound, the GI50 (MDA-MB-231) was > 100 µM (inactive) and the GI50 (UO-31) was > 100 µM (inactive).
